In one test the target is T1, BRAF^WT (Homo sapiens, UniProt P15056).
T1 construct: purchased Invitrogen (SelectScreen service)
Briefly: SelectScreen Z'-LYTE kinase activity assay. As to conditions: 100 μM ATP. The class given is biochemical.

For a further test, the target named is BRAF^V600E (Homo sapiens, UniProt P15056, V600E). The experiment in a line: SelectScreen Z'-LYTE kinase activity assay. The format is biochemical. Details: purchased Invitrogen (SelectScreen service). The following applies: 100 μM ATP.
Test [1] has as its system A375 cells (BRAF^V600E monomers). Briefly: p-ERK inhibition by western blot. As to conditions: A375 cells.
The subject of test [2] is RAS^MUT/BRAF^WT melanoma or lung cancer cells (SKMEL-30, SKMEL-2, CALU6). Briefly: ERK signaling inhibition by western blot. As to conditions: RAS^MUT/BRAF^WT cells, 1 h. (A western blot detects proteins with antibodies after separation by electrophoresis.)

Experimental findings from paper PMC7462985, “Inhibitors of BRAF dimers using an allosteric site” (Nature Communications, 2020) are described below.

SMILES strings stand for the structures.

In general, IC50 refers to the point on the concentration scale where inhibition reaches its midpoint. Low readings indicate higher potency, high ones lower potency.

T1 sequence (P15056 whole entry): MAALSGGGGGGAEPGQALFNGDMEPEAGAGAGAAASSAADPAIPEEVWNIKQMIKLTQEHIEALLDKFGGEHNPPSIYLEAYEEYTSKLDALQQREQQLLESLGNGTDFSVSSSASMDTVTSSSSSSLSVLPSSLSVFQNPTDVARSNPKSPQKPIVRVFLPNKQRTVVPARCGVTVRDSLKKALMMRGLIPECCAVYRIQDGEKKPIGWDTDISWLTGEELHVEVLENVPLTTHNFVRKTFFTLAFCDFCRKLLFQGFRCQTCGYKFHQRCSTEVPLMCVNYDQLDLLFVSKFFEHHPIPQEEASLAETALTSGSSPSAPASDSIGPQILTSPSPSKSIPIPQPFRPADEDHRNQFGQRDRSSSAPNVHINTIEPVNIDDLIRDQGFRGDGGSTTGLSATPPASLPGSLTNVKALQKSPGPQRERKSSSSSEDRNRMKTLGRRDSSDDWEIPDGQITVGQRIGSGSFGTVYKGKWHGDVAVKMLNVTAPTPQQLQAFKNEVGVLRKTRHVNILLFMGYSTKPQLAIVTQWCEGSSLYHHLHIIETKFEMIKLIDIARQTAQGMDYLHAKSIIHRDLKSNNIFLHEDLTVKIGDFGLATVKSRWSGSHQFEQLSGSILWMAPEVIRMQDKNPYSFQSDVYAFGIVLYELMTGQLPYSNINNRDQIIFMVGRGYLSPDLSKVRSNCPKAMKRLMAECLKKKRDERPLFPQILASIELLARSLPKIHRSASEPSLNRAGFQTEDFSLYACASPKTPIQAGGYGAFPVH
Chain of BRAF^V600E (P15056 whole entry V600E): as the sequence (P15056 whole entry) above, with V600E counted along it

For the molecule `CCc1cc(N2CCC(NCc3ccc(NC(=O)c4ccc(C)c(C#Cc5cnc6cccnn56)c4)cc3C(F)(F)F)CC2)ncn1` [PHI2], the values for the IC50 against BRAF^WT and against BRAF^V600E were 598 ± 113 nM and 35 ± 2.8 nM, respectively. In addition, in test [1] (1 h), the “inhibitory activity for BRAF^V600E monomers in comparison to PHI1 (in words)” value is reported as “increased”.

Turning to `CCCS(=O)(=O)Nc1ccc(F)c(C(=O)c2c[nH]c3ncc(-c4ccc(Cl)cc4)cc23)c1F` [Vemurafenib], in test [2], the “effect on p-ERK levels (in words)” value is “enhances p-ERK levels”. Also, in test [1] (3 hrs, immunoblot), the “concentration that robustly inhibits ERK signaling” value came to 0.3 µM.
